According to patent US20240043394A1, “PROTEASOME ENHANCERS AND USES THEREOF” (Board of Trustees of Michigan State University, priority 2020, published 2024):

What was measured:
[1] = test system: A53T mutant α-synuclein in Hek-293T cells; assay: In cell degradation of A53T α-synuclein (Western blot); assay type: cell-based; settings: 10 hours; for decrease of accumulated A53T α-synuclein: normalized to vehicle
Description: Error bars denote standard deviation. One-way ANOVA statistical analysis was used to determine statistical significance (ns=not significant, *p<0.05, **p<0.01, ***p<0.001, ****p<0.0001) (FIG. 4B).
Cellular efficacy: The A53T mutation of α-synuclein has been linked to early on-set familial Parkinson's disease and appears to oligomerize faster than the wild-type protein. […] Hek-293T cells were transiently transfected with an inducible Tet-One A53T mutant α-synuclein. The cells were treated with 100 ng/mL of doxycycline to induce the production of the A53T mutant. […] The cells were then lysed and the remaining A53T α-synuclein was visualized and quantified via Western Blotting (FIG. 4, n=4).
In cell degradation of A53T α-synuclein: In a 6 well plate, Hek293T cells were grown to 80% confluency and then transfected using Xfect biopolymer transfection system with the Tet-One A53T α-synuclein plasmid. 24 hours post transfection, 100 ng/mL of doxycycline was added to induce A53T α-synuclein expression. After 24 hours of protein induction, media was removed that contained the doxycycline and was washed with PBS. Media with the desired drug concentration or DMSO was added and treated for 10 hours. After the cells were treated with the test compounds or DMSO, the cells were scraped and the pelleted (300 g for 5 minutes). The supernatant was taken off and the cell pellet was washed with ice cold PBS and then lysed with RIPA buffer with added protease inhibitors. The cell lysate was incubated for 20 minutes on ice. The lysate was centrifuged for 15 minutes at 500 g and then the supernatant was collected. Concentrated SDS loading buffer was added and the samples were boiled for 10 minutes. The samples were then resolved on a 4-20% Tris-glycine SDS-PAGE gel and immunoblotted with mouse monoclonal anti α-synuclein IgG (1:2000) and anti-mouse HRP-linked IgG (1:2000). Blots were developed with ECL Westem reagent and imaged with an Azure Biosystems 3000 imager.

[2] = biological target: T1, purified human 20S proteasome (Homo sapiens, UniProt P25787+P60900); assay: Digestion of purified α-synuclein by purified 20S proteasome (silver staining); assay type: biochemical
T1 construct: purchased Boston Biochem or Life Sensors E-360 or ps020
Description: Quantification of α-synuclein degradation by each compound was done in triplicate. One-way ANOVA statistical analysis was used to determine statistical significance (ns=not significant, *p<0.05, *p<0.01, ***p<0.001, ****p<0.0001).
In vitro testing, IDP degradation: The ability of our small molecules 20S proteasome activators to degrade pathologically relevant IDPs was evaluated in vitro and in cells. […] Then, purified α-synuclein was added and the digestion was incubated at 37° for 6 hours. An SDS loading buffer was added and the samples were boiled to halt α-synuclein degradation. The percentage of remaining α-synuclein was visualized and quantified using silver staining (FIG. 3). Compound 2 was able to increase the rate of degradation of full length α-synuclein. At the highest concentration (5 μM), α-synuclein was reduced up to 33%.
Digestion of purified α-synuclein: Degradation assays were carried out in a 50 μL reaction volume of […] buffer at a pH of 7.8, 0.5 μM of purified α-synuclein, and 7.5 nM purified human 20S proteasome. The 20S proteasome was first diluted to 8.56 nM in the Tris-HCl buffer and 1 μL of the test compounds or DMSO was added. This mixture was incubated for 20 minutes at 37° C. After this incubation, 5 μL of a 5 μM stock of α-synuclein was added. The degradation mixture was incubated at 37° C. for 5 hours. The reaction was stopped with addition of concentrated SDS loading buffer and boiled for 10 minutes. After the samples were boiled, they were resolved on a 4-20% Tris-glycine SDS-PAGE gel and visualized using silver staining.

26S proteasome = 26S proteasome (Homo sapiens, UniProt P25787+P60900); assay: Fluorogenic small peptide degradation assay with the 26S proteasome (ATP and magnesium chloride added); assay type: biochemical; settings: for 26S proteasome activation, in words: concentration range 0-80 μM
Description: The fluorogenic small peptide degradation assay was conducted again, with the 26S proteasome in place of the 20S proteasome. To ensure that the 26S proteasome remained in its fully assembled complex, ATP and magnesium chloride were added.

[3] = biological target: T1, purified human 20S proteasome; assay: 20S proteasome small peptide assay, combination of all three fluorogenic substrates (CT-L/Casp-L/T-L); assay type: biochemical; design: key to 20S proteasome activation, classed in words: compounds that exhibit a maximum fold enhancement of <2 fold (i.e. <200%) at a concentration >20 μM were considered inactive; settings: for AC200 CT-L/Casp-L/T-L: concentration needed to double (200%) the rate of substrate degradation vs vehicle; for AC200 CT-L/Casp-L/T-L / Max Fold CT-L/Casp-L/T-L: three probes combined; for Max Fold CT-L/Casp-L/T-L: maximum fold rate increase vs vehicle control
Description: (§1) In vitro testing, 20S activation: The 20S proteasome activity of the compounds was assessed by utilizing the standard fluorogenic 7-amino-methylcoumarin (AMC) conjugated small peptide substrates that correspond to each of the catalytic sites in the 20S proteasome: chymotryptic-like site (Suc-LLVY-AMC), caspase-like site (Z-LLE-AMC), and trypsin-like site (Boc-LRR-AMC). When the small peptide substrate is degraded by the 20S proteasome, the AMC fluorophore is released and quantified to measure the rate of proteolytic cleavage. The 20S proteasome activity of the small molecules was evaluated at varying concentrations to determine the concentration at which the rate of proteolysis was doubled (i.e. the concentration needed to induce 200% activity) compared to the vehicle control (hereafter named as AC200). Concentrations ranging from 1.25 μM to 80 μM of each of compound were added to wells that contained 0.5 nM of purified human proteasome.
(§2) The overall enhancement of the rate of proteolysis of the 20S proteasome by a small molecule was first evaluated by adding a combination of all three peptide substrates to the treated sample. The combination of all three substrates represents a more accurate measurement of proteolytic activity of the proteasome because the catalytic sites housed in the β ring of the 20S proteasome communicate through allosteric interactions. For example, when a protein substrate encounters the chymotryptic-like site, a conformational change will occur activating the caspase-like site.^61 The individual contribution of each of the three catalytic sites was subsequently evaluated by adding only the corresponding peptide probes to gain insight into the contribution of each site on the overall enhanced proteolytic activity.
(§3) The fluorescent output, due to release of the AMC fluorophore, was then converted to the fold increase compared to a vehicle control sample, and the AC200 was calculated. […] (Table 1).
(§4) AC200 represents the concentration needed to double (e.g., 200%) the rate of substrate degradation compared to vehicle control. Max fold is the maximum fold rate increase compared to vehicle control.
(§5) 20S Proteasome Small Peptide Assay: Activity assays were carried out in a black flat/clear bottom 96 well plate with a […] volume. Concentrations of the potential activators, varying from 80 μM to 1.25 μM, were added to the well that contained 1 nM 20S proteasome purchased from either Boston Biochem (catalog number E-360) or Life Sensors (catalog number ps020), in a […] buffer at a pH of 7.8. This solution was left to incubate at 37° C. for 15 minutes. For the assay for the overall proteasome activity, 13.33 μM of each small peptide substrate is added. The 96 well plate is then placed into a plate reader (SpectraMax M5e spectrometer) and the plate reader will take a fluorescent reading every 5 minutes for an hour at 37° C. The enzymatic activity of the 20S proteasome is quantified using the fluorescent output at 380-460 nm, which is converted to max fold increase over the untreated sample. The activity of the individual catalytic assays is identical to the assay that assesses the overall activity of the 20S proteasome except only one small peptide substrate is added. To evaluate the activity of the CT-L and the Casp-L sites, 10 μM of the Suc-LLVY-AMC (Boston Biochem S-280) and Z-LLE-AMC (Boston Biochem S-230) were added, respectively. To evaluate the activity of the T-L site, 20 μM of the Boc-LRR-AMC (Boston Biochem S-300) is added.

[4] = biological target: T2, purified human 20S proteasome, CT-L site (Homo sapiens, UniProt P25787+P60900); assay: 20S proteasome small peptide assay, Suc-LLVY-AMC chymotryptic-like probe; assay type: biochemical; settings: for AC200 CT-L site: concentration needed to double rate vs vehicle; for Max Fold CT-L site: maximum fold rate increase vs vehicle
T2 construct: purchased Boston Biochem or Life Sensors E-360 or ps020
Description: as §1, §2, §3, §4, §5

[5] = biological target: T3, purified human 20S proteasome, T-L site (Homo sapiens, UniProt P25787+P60900); assay: 20S proteasome small peptide assay, Boc-LRR-AMC trypsin-like probe; assay type: biochemical; settings: for AC200 T-L site: concentration needed to double rate vs vehicle
T3 construct: purchased Boston Biochem or Life Sensors E-360 or ps020
Description: as §1, §2, §3, §4, §5

[6] = biological target: T4, purified human 20S proteasome, Casp-L site (Homo sapiens, UniProt P25787+P60900); assay: 20S proteasome small peptide assay, Z-LLE-AMC caspase-like probe; assay type: biochemical; settings: for AC200 Casp-L site: concentration needed to double rate vs vehicle
T4 construct: purchased Boston Biochem or Life Sensors E-360 or ps020
Description: as §1, §2, §3, §4, §5

[7] = maximum fold rate increase vs vehicle

SMILES | reduction of A53T mutant α-synuclein, in words ([1]; 3 μM (lowest concentration)) | decrease of accumulated A53T α-synuclein ([1]; 10 μM) [%] | depletion of α-synuclein over concentration range, in words ([2]; 0.1 μM to 5 μM) | decrease of α-synuclein ([2]; 0.5 μM compound, 37° C., 6 hours) [%] | reduction of α-synuclein ([2]; 5 μM compound, 37° C., 6 hours) [%] | 26S proteasome activation, in words (26S proteasome) | AC200 CT-L/Casp-L/T-L [3] [µM] | Max Fold CT-L/Casp-L/T-L [3] [fold] | AC200 CT-L site [4] [µM] | Max Fold CT-L site [4] [fold] | AC200 T-L site [5] [µM] | Max Fold T-L site [5, 7] [fold] | AC200 Casp-L site [6] [µM] | Max Fold Casp-L site [6, 7] [fold] | 26S proteasome activation, maximum fold increase over the vehicle control (26S proteasome; at higher concentrations (range 0-80 μM)) [fold] | decrease of A53T mutant α-synuclein, in words ([1]; 10 μM) | 20S proteasome activation, classed in words ([3]; concentrations tested 1.25 μM to 80 μM)
O=C(CCN1c2ccccc2Sc2ccc(Cl)cc21)N(c1ccc(F)cc1)c1ccc(F)cc1 [Compound 19, 3-(2-chloro-10H-phenothiazin-10-yl)-N,N-bis(4-fluorophenyl)propanamide] | reduce the concentration of the A53T mutant α-synuclein significantly | 58 | clear dose dependent depletion | 34 | 57 | did not display any 26S proteasome activation | 0.4 | 11 | 0.7 | 9.4 | 0.3 | 6 | 1.8 | 9.4 | – | – | –
CN(C)CCCN1c2ccccc2Sc2ccc(Cl)cc21 [CPZ, chlorpromazine, reference compound] | – | – | – | – | – | did not enhance the proteolytic activity of the 26S proteasome | 13.5 | ~4 | 7 | 8 | >80 | – | >80 | – | 2 | – | –
CCOC(=O)[C@]1(c2ccccc2)N=C(c2ccc(OC)cc2)N(Cc2ccccc2)[C@@H]1c1ccc(NCc2ccccc2)cc1 [TCH-165, reference compound] | – | 40 | – | – | – | – | – | – | – | – | – | – | – | – | – | – | –
Oc1ccc(CN2c3ccccc3Sc3ccc(Cl)cc32)cc1 [Compound 8, 4-((2-Chloro-10H-phenothiazin-10-yl)methyl)phenol] | – | – | – | – | – | – | >80 | – | >80 | – | >80 | – | >80 | – | – | no decrease | inactive
